Laboratory results published in publication PMC7377239, “Cardiovascular Effects of Polychlorinated Biphenyls and Their Major Metabolites” (Environmental Health Perspectives, 2020).
Where a name gives a salt, the structure may show the parent alone. Read-outs that look alike come from different tables or passages of the source.

Test system: HUVECs
Test: Tube formation (tubulogenesis) assay in HUVECs, 18 h
Type: cell-based, human
Settings: Homo sapiens, HUVEC, 18 h, HUVECs; for activity at 0.1 µM: 0.10 µM; for minimal effective concentration: top concentration 100.00 µM
Method: Similar to the cultivation of iCell®-endothelial cells, HUVEC maintenance and experimentation are detailed elsewhere ([Iwata et al. 2017]). Briefly, HUVECs were thawed, seeded, and grown in T75 tissue culture flasks in Medium 199 with EGM™-2 BulletKits™. HUVECs were incubated at regular cell culture conditions, 37°C and 5% CO2 , and passaged every 2–3 d using TrypLE™ Express. To ensure adequate endothelial function, experiments were performed with cells between passages 1 and 5.
Tube formation assays were performed on Geltrex™ LDEV-free reduced growth factor basement membrane using both iCell®-endothelial cells and HUVECs in 384-well format exactly as detailed in Iwata et al. ([2017]). Negative controls included media-only and vehicle control (i.e., 0.5% vol/vol DMSO in cell culture media) wells. Positive assay controls were consistent with previously published reports ([Iwata et al. 2017]) and included TAB ( 50μM ) as a cytotoxic control, and nocodazole ( 0.01–1μM ), suramin ( 0.5–50μM ), histamine ( 0.1–100μM ), and chloroquine ( 1–500μM ) as chemicals associated with specific effects on ECs. Each test chemical was screened in triplicate for each concentration. Briefly, for iCell®-endothelial cells, starvation media consisted of VascuLife® basal medium with 4 mM L-glutamine LifeFactor and 0.1% iCell®-endothelial cells medium supplement. To counter dilution effects, a 2× concentration of the HUVEC maintenance medium supplemented with additional VEGF was created (EGM™-2 BulletKits™ at 2× concentration; also the VEGF component was replaced with 12.5 ng/mL VEGF). Geltrex™ LDEV-free reduced growth factor basement membrane was thawed overnight and dispensed into 384-well plates ( 10μL/well ) with tapping and rotating to evenly coat. The plates were incubated for 1 h in a cell culture incubator at 37°C and 5% CO2 . A 2× PCB plate (containing all of the PCBs and metabolites in dose–response) was prepared in basal media and added, 25μL per well, to the Geltrex™ coated plates. On separate plates, cells were seeded 7,500 (iPSC- ECs) or 3,500 (HUVEC) cells/well. Cells were exposed to chemicals overnight at 37°C and 5% CO2 and stained with 3× concentration of calcein AM ( 25μL /well, 6μmol/L ) for 15 min before imaging. Images were captured at 4× magnification with the FITC filter (calcein AM). Images were analyzed with the angiogenesis module software within MetaXpress™ (Molecular Devices).
Phenotypic responses were quantitatively assessed using concentration–response modeling as detailed elsewhere ([Sirenko et al. 2017]). Briefly, phenotypic readouts were normalized to vehicle controls and fit to a four-parameter logistic model in R studio software (version 3.1.1; R Development Core Team). Following EPA guidance on dose–response modeling, a cutoff of one standard deviation across means of vehicle control (i.e., 0.5% vol/vol DMSO in cell culture media) wells was applied to determine the point-of-departure (POD) values ([U.S. EPA 2012]). In the absence of a concentration–response, the highest tested concentration (i.e., 100μM ) was assigned as “no observable adverse effect level.” The concentration–response assessment R script, as well as templates for vehicle and concentration–response data, are available as a supplement to Sirenko et al. ([2017]). The ability of physicochemical properties to predict differences in PODs were evaluated by multiregression and mixed-effects modeling using R.

[1] = 0.00 µM = 100.00, read-out: huvec.mtl.18hr
[2] = 0.00 µM = 100.00, read-out: huvec.tlps.18hr
[3] = 0.00 µM = 100.00, read-out: huvec.tta.18hr
[4] = 0.00 µM = 100.00, read-out: huvec.ttl.18hr

SMILES | activity at 0.01 µM [1] [%] | activity at 0.01 µM [2] [%] | activity at 0.01 µM [3] [%] | activity at 0.01 µM [4] [%] | activity at 0.1 µM [1] [%] | activity at 0.1 µM [2] [%] | activity at 0.1 µM [3] [%] | activity at 0.1 µM [4] [%] | activity at 1 µM [1] [%] | activity at 1 µM [2] [%] | activity at 1 µM [3] [%] | activity at 1 µM [4] [%] | activity at 10 µM [1] [%] | activity at 10 µM [2] [%] | activity at 10 µM [3] [%] | activity at 10 µM [4] [%] | activity at 100 µM [1] [%] | activity at 100 µM [2] [%] | activity at 100 µM [3] [%] | activity at 100 µM [4] [%] | also measured
Oc1ccc(O)c(-c2ccc(Cl)cc2)c1 [2',5'-DiOH PCB3] | 99 | 90.3 | 127 | 123 | 104 | 135 | 107 | 107 | 91.9 | 93.2 | 87.2 | 90.1 | 64.1 | 21.9 | 19.3 | 19.9 | 57.8 | 9.87 | 0.82 | 1.52 | minimal effective concentration (read-out: huvec.mtl.18hr POD): 1.26 µM; minimal effective concentration (read-out: huvec.tlps.18hr POD): 1.55 µM; minimal effective concentration (read-out: huvec.tta.18hr POD): 1.39 µM; minimal effective concentration (read-out: huvec.ttl.18hr POD): 1.23 µM
Oc1ccccc1-c1ccc(Cl)cc1 [2'-OH PCB3] | 96 | 85.8 | 84 | 89.1 | 77.3 | 49.3 | 42.9 | 47.4 | 95.4 | 65 | 71.9 | 75 | 92.4 | 77.5 | 65.8 | 69.6 | 73.9 | 35.5 | 64 | 49.6 | minimal effective concentration (read-out: huvec.mtl.18hr POD): 100 µM; minimal effective concentration (read-out: huvec.tlps.18hr POD): 0.57 µM; minimal effective concentration (read-out: huvec.tta.18hr POD): 100 µM; minimal effective concentration (read-out: huvec.ttl.18hr POD): 100 µM
O=S(=O)(O)Oc1cc(Cl)ccc1-c1ccccc1 [2-yl PCB 3 sulfate] | 100 | 98.8 | 108 | 108 | 99.3 | 101 | 147 | 147 | 97.8 | 116 | 132 | 128 | 90.4 | 99.7 | 90.3 | 93.2 | 74.5 | 59.6 | 61.5 | 62 | minimal effective concentration (read-out: huvec.mtl.18hr POD): 10.7 µM; minimal effective concentration (read-out: huvec.tlps.18hr POD): 37.4 µM; minimal effective concentration (read-out: huvec.tta.18hr POD): 100 µM; minimal effective concentration (read-out: huvec.ttl.18hr POD): 100 µM
Oc1cccc(-c2ccc(Cl)cc2)c1 [3'-OH PCB3] | 96.9 | 88.1 | 90.6 | 92 | 102 | 83.7 | 124 | 127 | 93 | 89.2 | 91.7 | 95.4 | 70.2 | 66.1 | 58.6 | 61.5 | 72.3 | 25.9 | 17.3 | 15.5 | minimal effective concentration (read-out: huvec.mtl.18hr POD): 1.14 µM; minimal effective concentration (read-out: huvec.tlps.18hr POD): 1.01 µM; minimal effective concentration (read-out: huvec.tta.18hr POD): 3.65 µM; minimal effective concentration (read-out: huvec.ttl.18hr POD): 3.26 µM
O=S(=O)(O)Oc1cccc(-c2ccc(Cl)cc2)c1 [3'-yl PCB 3 sulfate] | 106 | 119 | 121 | 112 | 110 | 121 | 141 | 142 | 111 | 129 | 141 | 137 | 97.5 | 141 | 104 | 102 | 58 | 37.8 | 52.3 | 58.3 | minimal effective concentration (read-out: huvec.mtl.18hr POD): 15.5 µM; minimal effective concentration (read-out: huvec.tlps.18hr POD): 100 µM; minimal effective concentration (read-out: huvec.tta.18hr POD): 100 µM; minimal effective concentration (read-out: huvec.ttl.18hr POD): 100 µM
O=S(=O)(O)Oc1cc(-c2ccccc2)ccc1Cl [3-yl PCB 3 sulfate] | 95 | 89.1 | 78 | 73.3 | 100 | 109 | 141 | 137 | 94.1 | 116 | 124 | 123 | 91.9 | 112 | 114 | 110 | 62.3 | 58.1 | 63.7 | 61.1 | minimal effective concentration (read-out: huvec.mtl.18hr POD): 11.5 µM; minimal effective concentration (read-out: huvec.tlps.18hr POD): 65.8 µM; minimal effective concentration (read-out: huvec.tta.18hr POD): 100 µM; minimal effective concentration (read-out: huvec.ttl.18hr POD): 52.1 µM
Oc1ccc(-c2ccc(Cl)cc2)cc1 [4'-OH PCB3] | 101 | 106 | 113 | 119 | 94 | 89.7 | 88.3 | 93.3 | 93.7 | 76.2 | 98.5 | 102 | 72.2 | 66.1 | 68.8 | 71.7 | 76.3 | 34 | 11.6 | 8.84 | minimal effective concentration (read-out: huvec.mtl.18hr POD): 1.21 µM; minimal effective concentration (read-out: huvec.tlps.18hr POD): 0.51 µM; minimal effective concentration (read-out: huvec.tta.18hr POD): 5.36 µM; minimal effective concentration (read-out: huvec.ttl.18hr POD): 5.16 µM
